For one experiment, the system named is B. subtilis 168 strain. Kind of experiment: MIC, standard microtiter broth dilution. In kind it is cell-based, Bacillus subtilis. Also noted: key to MIC: MIC + antibacterial activity against Bacillus subtilis 168. Here is the method: The minimum inhibitory concentrations (MICs) were determined using the standard microtiter broth dilution method, as recommended by the guidelines of the Clinical Laboratory Standards Institute.

The target of another experiment is T1, EvgS (559–1197) D1009A (Escherichia coli, UniProt P30855, D1009A).
T1 construct: EvgS (559–1197) D1009A; His6 (C); made in house; host or cells: E. coli BL21(DE3)
T1 sequence (P30855 559-1197 D1009A): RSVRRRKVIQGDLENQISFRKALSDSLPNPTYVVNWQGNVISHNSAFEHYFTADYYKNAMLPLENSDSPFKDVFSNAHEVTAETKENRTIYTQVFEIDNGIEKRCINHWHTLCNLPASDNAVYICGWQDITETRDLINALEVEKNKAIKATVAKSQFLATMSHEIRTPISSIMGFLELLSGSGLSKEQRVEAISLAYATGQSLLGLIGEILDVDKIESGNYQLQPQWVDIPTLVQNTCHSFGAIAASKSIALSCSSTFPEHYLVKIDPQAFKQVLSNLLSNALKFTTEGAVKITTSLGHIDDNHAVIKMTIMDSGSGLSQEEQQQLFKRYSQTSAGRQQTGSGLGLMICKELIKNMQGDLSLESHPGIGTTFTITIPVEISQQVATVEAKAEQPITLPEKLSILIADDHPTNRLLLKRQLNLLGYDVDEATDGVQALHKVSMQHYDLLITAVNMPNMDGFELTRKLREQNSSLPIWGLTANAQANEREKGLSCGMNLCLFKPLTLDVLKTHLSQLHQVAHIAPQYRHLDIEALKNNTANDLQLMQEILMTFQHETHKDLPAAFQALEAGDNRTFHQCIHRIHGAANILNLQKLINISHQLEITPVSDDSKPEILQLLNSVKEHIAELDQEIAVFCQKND
The experiment in a line: Inhibition of EvgS autophosphorylation. The note with it: EvgS (559–1197) D1009A; 1 µM HK, 40 µM ATP, 30 min at 25 °C; read-out: IC50. The class given is biochemical, Escherichia coli K12. Here is the method:
(§1) Autophosphorylation of WalK was conducted at 0.5 or 1 µM in a reaction mixture comprising 50 mM Tris-HCl (pH 8.5), 100 mM KCl, 5 mM MgCl2, 100 mM NH4Cl, 5% DMSO, and 40 µM ATP. The total reaction volume was 40 µl, and the incubation lasted for 30 min at 25 °C. To terminate the reaction, 40 µl of 2 × SDS-PAGE sample buffer was added, followed by a 10-min incubation at 37 °C. Subsequently, SDS-PAGE (10% acrylamide) was performed, and the samples were subjected to Western blotting using a PVDF membrane (Bio-Rad 1620177). The primary antibody used was anti-N3-phosphohistidine antibody (clone SC56-2) (EDM Millipore Corp), and the secondary antibody was goat anti-rabbit IgG-HRP (Abcam). A 2% bovine serum albumin (Sigma-Aldrich) solution served as the blocking reagent. Signals originating from phosphorylated HKs were detected using the HRP substrate (Immobilon Western Chemiluminescent HRP substrate, Millipore) and the Multi Imager II Multi Box (Bio Tools). Signal intensities were quantified with Image Analysis Software CS Analyzer 4 (ATTO). IC50 values (50% inhibitory concentrations) were determined using Prism 7 software (GraphPad).
(§2) In the assessment of naphthoquinone derivatives, the initial screening for inhibitory activity against WalK autophosphorylation was conducted at 50 or 100 µg ml^−1. Compounds displaying inhibitory activity were further examined to ascertain their IC50 values against WalK. For the chosen compounds, inhibition against EvgS, EnvZ, PhoQ, and CpxA HKs was also assessed. These reactions involved the use of 1 µM HK, 40 µM ATP, and a 30 min incubation at 25 °C.

For the next experiment, the target named is T2, EnvZ (Escherichia coli, UniProt P0AEJ4).
T2 construct: pETEcEnvZ(223-450); His6 (C); made in house; host or cells: E. coli BL21(DE3)
T2 sequence (P0AEJ4 223-450): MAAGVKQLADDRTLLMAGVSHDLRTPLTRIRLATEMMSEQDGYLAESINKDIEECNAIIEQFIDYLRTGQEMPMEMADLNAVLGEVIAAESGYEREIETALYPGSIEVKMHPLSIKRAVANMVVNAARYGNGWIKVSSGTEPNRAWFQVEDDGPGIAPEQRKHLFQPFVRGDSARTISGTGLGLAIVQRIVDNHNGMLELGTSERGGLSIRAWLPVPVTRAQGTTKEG
Kind of experiment: Inhibition of EnvZ autophosphorylation. In kind it is biochemical, Escherichia coli K12. Conditions: EnvZ; 1 µM HK, 40 µM ATP, 30 min at 25 °C; read-out: IC50. Here is the method: as §1, §2

The target of another experiment is T3, PhoQ (Escherichia coli, UniProt P23837).
T3 construct: cytoplasmic regions of PhoQ (261-486) and CpxA (188-457); His6 (C); made in house; host or cells: E. coli BL21(DE3)
T3 sequence (P23837 261-486): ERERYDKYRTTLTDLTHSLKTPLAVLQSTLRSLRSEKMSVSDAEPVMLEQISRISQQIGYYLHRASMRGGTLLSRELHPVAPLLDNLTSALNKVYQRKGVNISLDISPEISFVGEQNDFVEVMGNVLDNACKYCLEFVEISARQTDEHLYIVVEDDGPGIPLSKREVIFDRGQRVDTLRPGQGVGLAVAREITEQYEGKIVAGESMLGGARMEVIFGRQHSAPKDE
The experiment in a line: Inhibition of PhoQ autophosphorylation. In kind it is biochemical, Escherichia coli K12. The note with it: PhoQ; 1 µM HK, 40 µM ATP, buffer pH 7.5; read-out: IC50. Here is the method:
as §1, §2

The target in a further experiment is T4, CpxA (Escherichia coli, UniProt P0AE82).
T4 construct: cytoplasmic regions of PhoQ (261-486) and CpxA (188-457); His6 (C); made in house; host or cells: E. coli BL21(DE3)
T4 sequence (P0AE82 188-457): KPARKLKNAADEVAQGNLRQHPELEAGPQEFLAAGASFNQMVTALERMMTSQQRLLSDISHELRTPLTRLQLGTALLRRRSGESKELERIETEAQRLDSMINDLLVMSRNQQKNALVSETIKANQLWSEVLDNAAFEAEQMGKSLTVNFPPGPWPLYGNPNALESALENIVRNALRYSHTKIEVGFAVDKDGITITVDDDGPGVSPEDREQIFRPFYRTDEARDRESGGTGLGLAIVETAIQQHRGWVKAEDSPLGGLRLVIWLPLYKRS
The experiment in a line: Inhibition of CpxA autophosphorylation. The class given is biochemical, Escherichia coli K12. The note with it: CpxA; 1 µM HK, 40 µM ATP; read-out: IC50. Here is the method:
as §1, with “The” for “Autophosphorylation of WalK was conducted at 0.5 or 1 µM in a reaction mixture comprising 50 mM Tris-HCl (pH 8.5), 100 mM KCl, 5 mM MgCl2, 100 mM NH4Cl, 5% DMSO, and 40 µM ATP. The”
In the assessment of naphthoquinone derivatives, the initial screening for inhibitory activity against WalK autophosphorylation was conducted at 50 or 100 µg ml^−1. Compounds displaying inhibitory activity were further examined to ascertain their IC50 values against WalK. For the chosen compounds, inhibition against EvgS, EnvZ, PhoQ, and CpxA HKs was also assessed. […]

In experiment [1] the target is T5, WalK (207-611, B. subtilis) (Bacillus subtilis, UniProt Q45614).
T5 construct: His6 (N); made in house; host or cells: E. coli BL21(DE3)
T5 sequence (Q45614 207-611): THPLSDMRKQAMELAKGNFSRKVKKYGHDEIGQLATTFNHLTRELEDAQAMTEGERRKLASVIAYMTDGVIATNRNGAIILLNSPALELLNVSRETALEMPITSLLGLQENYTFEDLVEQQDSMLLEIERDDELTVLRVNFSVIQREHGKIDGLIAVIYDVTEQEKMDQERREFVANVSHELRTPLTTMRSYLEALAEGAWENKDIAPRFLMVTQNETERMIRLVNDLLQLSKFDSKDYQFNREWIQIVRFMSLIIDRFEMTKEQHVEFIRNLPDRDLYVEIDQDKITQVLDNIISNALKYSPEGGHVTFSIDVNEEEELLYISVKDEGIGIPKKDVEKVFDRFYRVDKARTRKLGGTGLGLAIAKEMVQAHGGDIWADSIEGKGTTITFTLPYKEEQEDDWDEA
The experiment in a line: Affinity selection/mass spectrometry, competition with waldiomycin. In kind it is binding. Also on record: key to AS/MS: AS/MS + competitive inhibition of the binding of waldiomycin to WalK; − increased binding of waldiomycin to WalK. Conditions: for increase of MS signal of the collected waldiomycin compared to only waldiomycin: compound 30 or 100 µM; for AS/MS: summary class, effect on binding of waldiomycin to WalK. Here is the method:
The affinity selection/mass spectrometry (AS/MS) is a method which can detect the binding of small compounds to proteins. This experiment was carried out following a previously established protocol (Fig. 5), with the exception of using Millipore 96-well filter plates (MSBVN1210) instead of MAHAN4510. In the experiment, 1 µM of WalK (207-611, B. subtilis, refer to Table S2) was combined and incubated with 5 µM of waldiomycin and competitor compounds in a reaction buffer. The buffer composition was as follows: 25 mM Tris-HCl (pH 8.0), 50 mM KCl, 50 mM NH4Cl, 5 mM MgCl2, 1 mM DTT, and 0.1% CHAPS. Following the incubation, the mixture was subjected to size-exclusion chromatography via centrifugation to eliminate free compounds. The protein that was eluted was then denatured by adding an equal volume of methanol/0.1% formic acid. The compounds that were subsequently released from the protein were detected using an LC/MS system. The concentrations of waldiomycin were calculated from the value of peak areas using calibration curve that covered the range of 1 nM to 1 µM (R^2 = 0.9991). The concentration of waldiomycin in the eluate of WalK and waldiomycin without competitor was 10.1 nM, and percentages to this value were calculated for other samples.

For experiment [2], the system named is HKs (EvgS, EnvZ, PhoQ, and CpxA). Kind of experiment: Inhibition of class I HKs, summary over several HKs. In kind it is biochemical, Escherichia coli K12. Also on record: key to HKs: HKs + inhibitory effect against HKs (EvgS, EnvZ, PhoQ, and CpxA). Conditions: for inhibition of EvgS, EnvZ, PhoQ, and CpxA: in words; for HKs: summary class, EvgS, EnvZ, PhoQ, and CpxA. Here is the method:
as §1, §2

Where [3] appears, read: B. subtilis 168 strain grown in LB broth at 37 °C for 18 h.
Where [4] appears, read: summary class, Bacillus subtilis 168.

Entries after “also recorded” stand apart in the source; their conditions may differ.

Consider `O=C1C(Cl)=C(Nc2ccc(Cl)c(O)c2)C(=O)c2c(O)ccc(O)c21` [2h, 2-chloro-3-((4-chloro-3-hydroxyphenyl)amino)-5,8-dihydroxynaphthalene-1,4-dione], for which the MIC in the experiment on B. subtilis 168 strain (setting [3]) was 8 µg/mL; in the experiment on B. subtilis 168 strain (B. subtilis 168 strain grown in LB broth at 37 °C for 18 h, listed as C00015), 8 µg/mL; with B. subtilis 168 strain (setting [4]), “+”. Moreover, the IC50 was determined as 25.8 µM on EvgS (559–1197) D1009A, 47.2 µM on EnvZ, 42.3 µM at PhoQ and 19.5 µM on CpxA. Also, the “increase of MS signal of the collected waldiomycin compared to only waldiomycin” value in experiment [1] (waldiomycin 5 µM, WalK 1 µM) was “about twofold”. Also, in experiment [1] (in words), the “binding to WalK competitive with that of waldiomycin” value (“binding to WalK competitive” for short) is “not competitive; also recorded: enhanced the binding of waldiomycin to WalK”. Further, the AS/MS result in experiment [1] is given as “−”. In addition, in experiment [2], the “inhibition of EvgS, EnvZ, PhoQ, and CpxA” value is reported as “inhibited all four of these HKs”. In addition, the HKs entry in experiment [2] is listed as “+”.

On to `Cc1noc2c1C(=O)c1c(O)ccc(O)c1C2=O` [3b, 5,8-dihydroxy-3-methylnaphtho[2,3-d]isoxazole-4,9-dione], for which the values for the minimum inhibitory concentration (MIC) in the experiment on B. subtilis 168 strain (setting [3]) and in the experiment with B. subtilis 168 strain (setting [4]) were 0.5 µg/mL and “+”, respectively. For the same compound, the “antibacterial (antimicrobial) activity against B. subtilis” value with B. subtilis 168 strain (in words) is reported as “equal to waldiomycin or even stronger”. Besides, the IC50 at EvgS (559–1197) D1009A stood at 109 µM; at EnvZ, 77.3 µM; on PhoQ it was 96.3 µM; at CpxA, 104 µM. For the same compound, in experiment [1] (compound 30 and 100 µM, in words), the “effect on the signal of waldiomycin” value is given as “reduced the signal of waldiomycin in a dose-dependent manner”. Moreover, the “signal of waldiomycin compared to only waldiomycin with WalK” value in experiment [1] (compound at 100 µM, waldiomycin 5 µM, WalK 1 µM) is “about 10%”. Further, the “binding to WalK competitive” value in experiment [1] (in words) is “competitive; also recorded: competitively interacted with waldiomycin”. The AS/MS result in experiment [1] is listed as “+”. The “inhibition of EvgS, EnvZ, PhoQ, and CpxA” value in experiment [2] is “inhibited all four of these HKs”. Further, in experiment [2], the HKs entry is listed as “+”.

`CC(C)(C)OC(=O)Nc1cccc(NC2=C(Cl)C(=O)c3c(O)ccc(O)c3C2=O)c1` [2l, tert-butyl (3-((3-chloro-5,8-dihydroxy-1,4-dioxo-1,4-dihydronaphthalen-2-yl)amino)phenyl)carbamate]: the figures for the MIC with B. subtilis 168 strain (setting [3]) and in the experiment on B. subtilis 168 strain (setting [4]) were 8 µg/mL and “+”, respectively. Also, the IC50 amounted to 50 µM on EvgS (559–1197) D1009A, 26.8 µM at EnvZ, 133 µM on PhoQ and 32.7 µM on CpxA. The “increase of MS signal of the collected waldiomycin compared to only waldiomycin” value in experiment [1] (waldiomycin 5 µM, WalK 1 µM) was “about twofold”. Moreover, the “binding to WalK competitive” value in experiment [1] (in words) is on record as “not competitive; also recorded: enhanced the binding of waldiomycin to WalK”. Further, the AS/MS result in experiment [1] is on record as “−”. Moreover, the “inhibition of EvgS, EnvZ, PhoQ, and CpxA” value in experiment [2] is given as “inhibited all four of these HKs”. Also, in experiment [2], the HKs result was “+”.

By MIC is commonly meant the least concentration at which growth counts as inhibited. By IC50 is commonly meant the point on the concentration scale where inhibition reaches its midpoint.

These data come from publication PMC11284088, “Synthesis and biochemical characterization of naphthoquinone derivatives targeting bacterial histidine kinases” (The Journal of Antibiotics, 2024).
